# Measurements: patent publication US9157904B2, “Wnt antagonists and methods of treatment and screening” (OncoMed Pharmaceuticals, Inc., priority 2010, dated 2015)
# What was measured:
# PN21 pancreatic tumors = assay: In vivo limiting dilution assay of treated PN21 tumors; design: species or system NOD/SCID mice; details: day 72
# Excerpt: As described above in Example 3, a limiting dilution assays was used to assess the effect of treatment with FZD8-Fc alone or in combination with gemcitabine on solid tumor cancer stem cells in the PN21 pancreatic tumor model.
# Control and treated tumors from the PN21 xenograft study described above were harvested at the end of the study. The tumors were processed and dissociated into single cells. […] The human cells in the suspension were harvested, counted, and stained for cell surface markers and appropriate cell doses (30, 90, and 270 cells) in FACS buffer were mixed in a 1:1 mixture with Matrigel and injected subcutaneously in NOD/SCID mice (10 mice per cell dose per treatment group). […]
# At the desired time point, the percentage of mice with detectable tumors was determined in all groups injected with treated tumor cells and compared to the percentage of mice with detectable tumors in control treated cells. For example, the number of mice injected with 125 control antibody-treated tumor cells that have detectable tumors is determined and compared to the number of mice injected with 125 FZD8-Fc treated tumor cells that have detectable tumors.
# On day 72 after injection of the cells, tumor take rates in the various groups were determined and the cancer stem cell frequency was calculated using L-Calc™ software (StemCell Technologies Inc.; www.stemcell.com).
# PN21 tumors = assay: Alcian blue and Ki67 staining of treated PN21 tumors; format: in vivo, NOD/SCID mice
# Procedure: The cell differentiation capability of FZD8-Fc was also evaluated in the OMP-PN21 pancreas tumor xenograft model. PN21 tumors from studies described in Example 8 were harvested and fixed in formalin, embedded in paraffin, and tumor sections of 4 μm thickness were cut. After deparaffinization and hydration, the tumor sections were subjected to an antigen retrieval process in Tris buffer (pH 9.5). Sections were incubated with hydrogen peroxide (Sigma-Aldrich, St Louis, Mo.) for 10 minutes to block endogenous peroxidases. Anti-Ki67 antibody (clone MIB-1, Dako, Carpinteria, Calif.) in blocking buffer (3% NHS, 1% BSA, 0.1% Tween-20 in PBS) at 1:200 dilution was added to each section and incubated for 1 hour. Slides were rinsed 3 times in PBST for 5 minutes each. Anti-mouse secondary antibody conjugated with HRP (ImmPRESS™ anti-mouse, Vector Laboratories Inc., Burlingame, Calif.) was added to the slides and incubated for 30 minutes. After multiple washes with PBST, Vector Nova Red substrate (Vector Laboratories Inc., Burlingame, Calif.) was added for localization of Ki67 antigen. The sections were treated with aqueous acetic acid for 5 minutes at room temperature. The sections were then treated with 1% alcian blue in 3% aqueous acetic acid for 30 minutes and washed with water. Sections were counter-stained in neutral fast red, dehydrated and mounted. […]
# PN4 pancreatic tumors = assay: In vivo limiting dilution assay of treated PN4 tumors; design: species or system NOD/SCID mice; details: day 75 after injection of 30, 90, 270 cells, control 7 out of 30
# Excerpt: Limiting dilution assays (LDA) can be used to assess the effect of therapeutic agents on solid tumor cancer stem cells and on the tumorigenicity of a tumor comprising the cancer stem cells. Such assays can be used to determine the frequency of cancer stem cells in tumors from animals treated with the FZD8-Fc fusion protein or other agent and to compare that frequency to the frequency of cancer stem cells in tumors from control animals. Control and treated tumors from the PN4 xenograft study described above were harvested at the end of the study (day 85). The tumors were processed and dissociated into single cells. […] The human cells in the suspension were harvested, counted, and stained for cell surface markers and appropriate cell doses (30, 90, and 270 cells) in FACS buffer were mixed in a 1:1 mixture with Matrigel and injected subcutaneously in NOD/SCID mice (10 mice per cell dose per treatment group). […] At the desired time point, the percentage of mice with detectable tumors was determined in all groups injected with FZD8-Fc-treated tumor cells and compared to the percentage of mice with detectable tumors in the controls. For example, the number of mice injected with 125 control antibody-treated tumor cells that have detectable tumors is determined and compared to the number of mice injected with 125 FZD8-Fc treated tumor cells that have detectable tumors. […]
substance,measurement,setting,value
54F03: Fri domain of human FZD8 fused to human IgG1 Fc with GRA linker; SEQ ID NO:1,reduction of cancer stem cell frequency as compared to control antibody,PN21 pancreatic tumors,four-fold
same,proliferating cells denoted by expression of Ki67,PN21 tumors,decrease in proliferating cells
same,cells expressing sialomucins (alcian blue),PN21 tumors; vs control antibody or gemcitabine alone,increase in cells expressing sialomucins
same,tumor take rate,PN4 pancreatic tumors,3 mice out of 30 mice
